Results taken from US11241436B2, “Autophagy inducers for treatment of CNS conditions” (Northwestern University, priority 2017, dated 2022).

What was measured:
Beclin 2-GASP1 binding = assay: Coimmunoprecipitation of endogenous GASP1 with endogenous Beclin 2 from mouse brain lysates; assay type: in vivo; details: injection to WT mice
Text: Lysates in each group were pooled from 3 mice.
Based on this model, the effect of these inducers on the Beclin 2-GASP1 interaction in vitro and in mouse brain were subsequently examined.

CB1R = assay: Brain CB1R (CNR1) level by Western blot after chronic WIN; assay type: in vivo, mouse; details: mice concurrently treated with daily WIN for 14 d
Procedure: (§1) To investigate whether restoration of CB1R signaling underlies the behavioral regulation by autophagy activation, the level and functionality of CB1R in mouse brain after co-administration of chronic cannabinoids and autophagy inducers were analyzed. […] To determine whether the increased level of CB1R represents CB1R re-sensitization in the brain, the agonist-induced phosphorylation of signaling kinases downstream of CB1R after chronic WIN exposure were analyzed.

CB1R signaling = CB1R signaling in brain (phosphorylation of MEK and JNK) after chronic WIN; assay type: in vivo, mouse; details: repeated WIN dosage 14 d, then acute WIN 1 h
Procedure: WT mice were treated with either daily WIN or vehicle for 14 d, and then subject to an acute dosage of WIN 1 h prior to collection of brain samples.
as §1

[1] = test system: HTT65Q and HTT103Q aggregates; assay: Filter trap assay of polyQ HTT aggregates in HeLa cells; assay type: cell-based
Procedure: Cells were transfected with nontargeting control (NC) or ATG7 siRNA 24 h prior to Rg2 treatment for another 24 h. HTT aggregates were analyzed by lysate filtration through 0.2 μm nitrocellulose membrane. Cells treated with tetracycline served as negative control.
(§2) ML246 promotes the removal of intracellular aggregates formed by polyglutamine (polyQ)-expansion proteins. HeLa cell lines stably expressing tetracycline-repressible expanded polyQ-repeat protein HTT (huntingtin) was used as a model, HTT65Q and HTT103Q. In contrast to the HTT protein with the normal number of glutamine repeats (HTT25Q), HTT65Q and HTT103Q formed insoluble polyQ aggregates larger than 0.2-μm diameter, which can be detected by filter trap assay. […] Fluorescence imaging further confirmed that ML246 administration decreased the number of cells positive for HTT aggregates, which is also in an ATG7-dependent manner (FIG. S6B).
(§3) Accordingly, whether Rg2 affects the clearance of proteinaceous inclusions in vitro was next determined, using HeLa cell lines expressing tetracycline-repressible expanded polyglutamine (polyQ)-repeat protein HTT (huntingtin), HTT65Q and HTT103Q. Unlike the HTT protein with the normal number of glutamine repeats (HTT25Q), HTT65Q and HTT103Q formed insoluble polyQ aggregates larger than 0.2-μm diameter, which were detected by filter trap assays (FIG. 5A).
Filter trap assay. HeLa cells stably expressing CFP-HTT25Q, CFP-HTT65Q and CFP-HTT103Q were treated with 100 ng/ml tetracycline (IBI Scientific, IB02200) for 48 h, or 0.5 μM ML246 for 24 h with control or ATG7 siRNA (GE Dharmacon ON-TARGETplus control or ATG7 SMARTpool siRNA) for 48 h. Cells were then collected and lysed in lysis buffer containing 0.5% NP-40 for 30 min at 4° C. After centrifugation, the pellet was digested with 0.5 mg/ml DNasel (in 20 mM Tris-Cl, pH 8.0) for 1 h at 37° C., and dissolved into lysates containing insoluble aggregates by 2% SDS, 50 mM DTT and 20 mM EDTA. The lysates were then added onto 0.2 μm nitrocellulose membrane that was pre-equilibrated with 2% SDS/TBS for 30 min, and were filtered through the membrane by gentle vacuum using the Bio-Dot SF microfiltration apparatus (Bio-Rad). The signal was detected by immunostaining with the HRP-conjugated GFP antibody (Santa Cruz Biotechnology, sc9996, 1:1000).

HTT aggregates = assay: Fluorescence imaging of HTT inclusions in HeLa cells; assay type: cell-based
Text: Blue, DAPI. Results represent mean±s.e.m. Scale bar: 20 μm. Statistics compare each value to the one under the “-” condition. **, P<0.01; ***, P<0.001; NS, not significant, t test.
as §2, §3

amyloid plaques = assay: Amyloid plaques stained by thioflavin S or Aβ42 antibody in brain of 5XFAD mice; assay type: in vivo, mouse
Procedure: Scale bar: 500 μm. Results represent mean±s.e.m. N=6-8. *, P<0.05; **, P<0.01, t test.
Immunofluorescence microscopy. Paraformaldehyde-fixed brain tissues were sectioned at 30 μm thickness. Free-floating sagittal sections were immunostained with 1% thioflavin S (Sigma-Aldrich, 230456) for 20 minutes. Additional sections were immunostained with Aβ (Invitrogen, 700254, 1:500) and Alexa Fluro 594 goat anti rabbit (ThermoFisher Scientific, Al 1012). Sections were mounted on slides with mounting medium containing DAPI (Vectashield) and then analyzed by fluorescence microscopy under the 10× objective.

5XFAD mice = assay: Morris water maze test of 5XFAD mice; assay type: in vivo, mouse
Procedure: Escape latency and total distance traveled in visible platform test and hidden platform test are shown. N=10-11. Results represent mean±s.e.m. Two-way repeated measures ANOVA.
Escape latency and total distance traveled in visible platform test and hidden platform test are shown. Results represent mean±s.e.m. Statistics were analyzed by the IBM SPSS Statistics Tools comparing differences between 2 curves.
Morris water maze testing. For animal behavior, 6-month old mice were tested. The Morris water maze test consists of two sections: the visible platform testing and hidden platform testing. During the tests, mice were placed in the water tank filled with opaque water (maintained at 25° C.), with their heads facing toward the tank wall. In the visible platform section, a black platform extending 2 cm above the water level was used for these trials. For each trial, the platform was randomly positioned, and the mouse was placed in the tank at different start positions. The trial was stopped after the mouse found and climbed onto the platform, and the escape latency was recorded. […] Mice were tested for 4 days with eight trials per day. In the hidden platform section, a transparent platform underneath the water level was used instead of the black one during all trials, mice were tested with a fixed platform location over 5 days period with six trials per day, and they were allowed to search the platform in 60 s. In the tests, two parameters were evaluated: the trail duration (s) and distance to the platform (m).

[2] = Brain penetration / pharmacokinetics study; details: for brain penetration: mouse, in vivo

Row | Structure (SMILES) | binding between endogenous Beclin 2 and endogenous GASP1 (Beclin 2-GASP1 binding) | levels of CB1R (CNR1) in the brain (CB1R) | CB1R (CNR1) signaling: phosphorylation of MEK and JNK (CB1R signaling) | accumulation of HTT65Q and HTT103Q aggregates ([1]; 0.5 μM ML246, 24 h) | reduction of HTT65Q and HTT103Q aggregates ([1]; ML246 with knockdown of ATG7) | number of cells positive for HTT aggregates (HTT aggregates; ML246) | amyloid plaques (amyloid plaques; 5XFAD mice, 5 weeks of ML246) | performance during the hidden platform trials (5XFAD mice; 6-month old 5XFAD mice, ML246 daily for 5 weeks) | brain penetration [2] | accumulation of HTT65Q and HTT103Q aggregates ([1]; Rg2, 24 h) | effect on HTT aggregates ([1]; Rg2 with knockdown of ATG7) | number of cells positive for HTT aggregates (HTT aggregates; Rg2) | number of amyloid plaques (amyloid plaques; Rg2-treated 5XFAD mice, thioflavin or Aβ42 antibody) | escape latency and distance, hidden platform (5XFAD mice; 5XFAD mice, Rg2 for 4 months) | escape latency or distance, visible platform (5XFAD mice; WT, vehicle-treated and Rg2-treated mice) | brain level ([2]; 24 h postinjection) | time of peak brain level after injection ([2]; brain) [min]
1 | N=c1c2c(-c3ccccc3)c(-c3ccccc3)n(Cc3ccccc3)c2ncn1[C@H]1CC[C@H](O)CC1 [ML246] | dramatically decreased | higher levels | rescued | decreased | prevents this reduction | decreased | trend of plaque reduction | improved the performance | can pass the blood-brain barrier | – | – | – | – | – | – | – | –
2 | CC(C)=CCC[C@](C)(O)[C@H]1CC[C@]2(C)[C@@H]1[C@H](O)C[C@@H]1[C@@]3(C)CC[C@H](O)C(C)(C)[C@@H]3[C@@H](O[C@@H]3O[C@H](CO)[C@@H](O)[C@H](O)[C@H]3O[C@@H]3O[C@@H](C)[C@H](O)[C@@H](O)[C@H]3O)C[C@]12C [Rg2, ginsenoside Rg2] | dramatically decreased | higher levels | rescued | – | – | – | – | – | able to enter the brain | decreased accumulation | abolished | reduced | significantly fewer number | significantly improved performance | no significant difference | still detectable | 15
